# Results reported in patent US20120129835A1 (priority 2010, published 2012).
# Test system: SCZD hiPSC neurons
# Type: cell-based, human
compound,measurement,value
[Cl-].[K+] [KCl],rabies trans-neuronal tracing in the presence of drugs known to affect synaptic transmission,occurs
NC1=N[C@H](O)[C@H]2[C@H]3O[C@]4(O)O[C@@H]([C@@H](O)[C@@]2(N1)[C@@H]4O)[C@]3(O)CO [tetrodotoxin],rabies trans-neuronal tracing in the presence of drugs known to affect synaptic transmission,occurs
ryanodine,rabies trans-neuronal tracing in the presence of drugs known to affect synaptic transmission,occurs
